The subject of assay [1] is NaCT-CHO (CHO cells stably expressing human NaCT). In words: Assay of the citric acid cycle activation ([1,5-14C]-citric acid, diffusion of [14C]-CO2). In kind it is cell-based. Particulars: 1 hour incubation at 37° C. with [1,5-14C]-citric acid. In short, it runs like this:
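NaCT-CHO cells (pME-CHO empty-vector cells for non-specific counts) were incubated 1 h at 37 °C in Na+-containing HEPES-Tris pH 7.4 with compound plus an equal volume of 0.4 mM [1,5-14C]-citric acid solution. Residual cell radioactivity was counted, [14C]-CO2 diffusion was taken as (Total−R)/(Total−NS)×100%, and EC50 was derived by regression.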

In assay [2] the test system is Zucker Diabetic Fatty (ZDF) rat. Kind of assay: Meal load test in type 2 diabetic model rats (postprandial blood glucose). On the set-up: unit not given here. Type of assay: in vivo. Particulars: ZDF rats fasted overnight, oral 10 mg/kg in 5% Arabia gum, blood glucose one hour after meal loading (50 kcal/kg). In a few lines: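 Overnight-fasted (17 h) ZDF rats, n=6 per group, given compound at 10 or 30 mg/kg orally in 5% Arabia gum 2 h before or just before a 50 kcal/kg AIN-93G meal load. Blood glucose at 1 h; effect expressed as BG1h difference from vehicle.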

Each structure is given as a SMILES string.

Broadly, the EC50 is the concentration at which the effect is half-maximal.

In assay [1], `N#Cc1[nH]nnc1-c1cc(N2CCCC2)nc(-c2ccccc2)n1` [Example 1676, 5-(2-phenyl-6-(pyrrolidin-1-yl)-pyrimidin-4-yl)-3H-[1,2,3]triazole-4-carbonitrile] yielded a concentration giving a half-maximal response (EC50) of 2220 nM. Also, the “BG1h (BG1h difference between compound group and vehicle group)” value in assay [2] was −49.5.

Take `N#Cc1[nH]nnc1-c1nc(-c2cccc(C(F)(F)F)c2)sc1Cl` [Example 108, 5-[5-chloro-2-(3-trifluoromethyl-phenyl-phenyl)-thiazol-4-yl]-3H-[1,2,3]triazole-4-carbonitrile]: the EC50 in assay [1] came to 420 nM. Besides, the “BG1h (BG1h difference between compound group and vehicle group)” value in assay [2] is on record as −101.9.

In the case of `CC(C)c1oc(-c2ccc(Cl)cc2)nc1-c1nn[nH]c1C#N` [Example 122, 5-[2-(4-chloro-phenyl)-5-isopropyl-oxazol-4-yl]-3H-[1,2,3]triazole-4-carbonitrile], a half-maximal effect in assay [1] (EC50) was put at 510 nM. Further, the “BG1h (BG1h difference between compound group and vehicle group)” value in assay [2] is −75.5.

On to `N#Cc1[nH]nnc1-c1cccc(-c2nccc(C(F)(F)F)n2)c1` [Example 21, 5-[3-(4-trifluoromethyl-pyrimidin-2-yl)-phenyl]-3H-[1,2,3]triazole-4-carbonitrile], for which, in assay [1], the EC50 turned out to be 770 nM. Also, in assay [2], the “BG1h (BG1h difference between compound group and vehicle group)” value is listed as −95.7.

`N#Cc1[nH]nnc1-c1cc(/C=C/c2ccc(F)cc2F)cc(C(F)(F)F)c1` [Example 645, 5-{3-[(E)-2-(2,4-difluoro-phenyl)-vinyl]-5-trifluoromethyl-phenyl}-3H-[1,2,3]triazole-4-carbonitrile]: a half-maximal effect in assay [1] (EC50) was put at 1090 nM. Further, the “BG1h (BG1h difference between compound group and vehicle group)” value in assay [2] is −121.6.

Turning to `Cc1cc(/C=C/c2ccc(F)cc2)cc(-c2nn[nH]c2C#N)c1` [Example 627, 5-{3-[(E)-2-(4-fluoro-phenyl)-vinyl]-5-methyl-phenyl}-3H-[1,2,3]triazole-4-carbonitrile], the concentration giving a half-maximal response (EC50) in assay [1] was 740 nM. In assay [2], the “BG1h (BG1h difference between compound group and vehicle group)” value is recorded as −85.2.

Turning to `Cc1sc(-c2ccc(C(F)(F)F)cc2)nc1-c1nn[nH]c1C#N` [Example 92, 5-[5-methyl-2-(4-trifluoromethyl-phenyl)-thiazol-4-yl]-3H-[1,2,3]triazole-4-carbonitrile], the response in assay [1] was half-maximal at 820 nM (EC50). In addition, in assay [2], the “BG1h (BG1h difference between compound group and vehicle group)” value was −69.2.

In assay [1], `N#Cc1[nH]nnc1-c1csc(-c2ccc(Cl)c(Cl)c2)n1` [Example 77, 5-[2-(3,4-dichloro-phenyl)-thiazol-4-yl]-3H-[1,2,3]triazole-4-carbonitrile] registered an EC50 of 910 nM. The “BG1h (BG1h difference between compound group and vehicle group)” value in assay [2] was −61.3.

Turning to `N#Cc1[nH]nnc1-c1cccc(/C=C/c2ccc(F)cc2)c1` [Example 640, 5-{3-[(E)-2-(4-fluoro-phenyl)-vinyl]-phenyl}-3H-[1,2,3]triazole-4-carbonitrile], the EC50 in assay [1] came to 670 nM. Moreover, the “BG1h (BG1h difference between compound group and vehicle group)” value in assay [2] is listed as −62.0.

Regarding `N#Cc1[nH]nnc1-c1cccc(-c2cc(F)cc(C(F)(F)F)c2)c1` [Example 220, 5-(5′-fluoro-3′-trifluoromethyl-biphenyl-3-yl)-3H-[1,2,3]triazole-4-carbonitrile], it took 350 nM to reach a half-maximal effect in assay [1] (EC50). In addition, the “BG1h (BG1h difference between compound group and vehicle group)” value in assay [2] is −85.6.

In assay [1], `N#Cc1[nH]nnc1-c1cc(Cl)cc(/C=C/c2cccc(OC(F)(F)F)c2)c1` [Example 649, 5-{3-chloro-5-[(E)-2-(3-trifluoromethoxy-phenyl)-vinyl]-phenyl}-3H-[1,2,3]triazole-4-carbonitrile] gave a concentration giving a half-maximal response (EC50) of 2470 nM. In addition, the “BG1h (BG1h difference between compound group and vehicle group)” value in assay [2] is listed as −99.4.

In assay [1], `N#Cc1[nH]nnc1-c1cccc(OCc2ccc(C(F)(F)F)c(C(F)(F)F)c2)c1` [Example 423, 5-[3-(3,4-bis-trifluoromethyl-benzyloxy)-phenyl]-3H-[1,2,3]triazole-4-carbonitrile] showed an EC50 of 920 nM. Also, in assay [2], the “BG1h (BG1h difference between compound group and vehicle group)” value is −87.6.
